Values joined by “and” are separate entries in the source; they are usually repeats but may differ in a detail not shown here. Equal values may be shown once.
Assays:
[1] = test system: Zebrafish embryos; experiment: Zebrafish embryo toxicity: survival, hatching, heart frequency; format: in vivo, Danio rerio; conditions: for cardiotoxicity in the Zebrafish model: overall conclusion; for survival rate: treated from 2 hpf for 5 days, vs controls, Kaplan Meier
Protocol: Wild-type Zebrafish embryos were obtained from natural mating of adult Danio rerio bred[25] and maintained in an automated re-circulating tank system (Tecniplast, Italy). At 2 hpf (hours post fertilization) embryos were treated with different concentrations of compounds Labio_16 and Labio_17. Both compounds were diluted in DMSO for stock solutions of […] and diluted in fish water (Reverse Osmosis equilibrated with Instant Ocean Salt) to final concentrations of 1.0 μM, 3.5 μM and 7.0 μM (compound Labio_16) and 0.1 μM, 1.0 μM, 7.5 μM and 13.0 μM (compound Labio_17). Since both compounds were diluted first in DMSO, there were two control groups for each treatment, one only with fish water and the other one with the highest concentration of DMSO used in the treatments (0.035% for Labio_16 treatment and 0.065% for Labio_17 treatment).
Embryos were maintained in a 96 well plate during the 5 days of treatment inside an incubator with light-dark cycle of 14–10 hours and controlled temperature (28 °C)[25]. The solution pH and conductivity were monitored. Survival and hatching efficiency were accompanied under a stereomicroscope (OlympusSZ4045) every day, as well as developmental toxicity. Data for survival evaluation were analysed by Kaplan Meier survival test.
At 2 dpf (days post fertilization) and 5 dpf embryos heart frequency were quantified. For this, a single embryo per larvae was placed under a stereomicroscope (OlympusSZ4045) in petri-dishes with system water and their heart rate was monitored for 60 seconds by a blind experimenter (N = 10 in triplicates)[25][26]. For all procedures, temperature was kept constant at 28 °C. Data were analysed using One-way ANOVA, followed by Tukey multiple comparisons test.

[2] = in vitro; format: cell-based
Protocol: Cellular viability determination after incubation with the test compounds (Labio_16 and Labio_17) was performed essentially as described elsewhere. Briefly, Vero (and Hacat/RAW) cells were grown in DMEM media supplemented with 10% inactivated fetal bovine serum and 1% penicillin-streptomycin. The cells were maintained in culture bottles at 37 °C in humidified atmosphere with 5% CO2. Cells were seeded at 3 × 10^3 cells per well (for Hacat/RAW or Vero) in a 96-well microtiter plate and incubated for 24 hours to adhere. Medium was carefully aspirated and replaced with 90 μL DMEM, and 10 μL of stocks of the chemical compounds were added to a final concentration of 20 μM (DMSO 2.0%, v/v). After 72 h at 37 °C under 5% of CO2, the cultures were incubated with 3-(4,5-dimethylthiazol-2-yl)-2,5-diphenyltetrazolium bromide (MTT) (1 mg mL^−1) for 3 h. The formazan crystals were dried at room temperature for at least 24 h and dissolved in DMSO. The absorbance was measured at 595 nm (Spectra Max M2e, Molecular Devices, USA). The percentage of cell viability for treated groups was reported considering the control wells (DMSO 0.5%-treated) as 100% of cell viability: cell viability (%) = (absorbance of treated wells/absorbance of control wells) x 100. Data are expressed as mean of cell viability ± standard error of mean of three independent experiments performed in triplicate.

[3] = biological target: T1, MtInhA:NADH binary complex (Mycobacterium tuberculosis, UniProt P9WGR1); experiment: biochemical; format: binding; conditions: for ΔG: estimated from ΔH and ΔS (Eq. 7); for ΔH / ΔS: van't Hoff analysis, 15–30 °C
T1 construct: made in house
T1 sequence (P9WGR1 whole entry, looked up, one chain of several): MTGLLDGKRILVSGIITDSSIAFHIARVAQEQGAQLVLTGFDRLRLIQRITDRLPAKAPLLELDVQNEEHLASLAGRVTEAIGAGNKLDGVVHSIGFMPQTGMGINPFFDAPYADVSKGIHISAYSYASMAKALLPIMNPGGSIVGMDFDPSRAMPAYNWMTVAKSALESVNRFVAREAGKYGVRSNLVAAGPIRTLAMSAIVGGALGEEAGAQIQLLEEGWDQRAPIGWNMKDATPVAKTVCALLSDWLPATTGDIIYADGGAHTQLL

Cc1ccccc1OCc1nc(-c2ccc(NC(=O)c3cccs3)cc2)no1 [Labio_16]
heart frequency at 5 dpf ([1]; 3.5 μM and 7.0 μM against DMSO control): a decrease in the heart rate
hatching efficiency ([1]; 1.0, 3.5, 7.0 μM vs controls): No difference
heart frequency at 2 dpf ([1]; all groups, one-way ANOVA): no difference
cardiotoxicity in the Zebrafish model [1]: no cardiotoxicity
survival rate [1]: statistical difference
viability at 72 h, 20 µM ([2]; African green monkey): 89 ± 12%
viability at 72 h, 20 µM ([2]; human): 104 ± 12%
Kd ([3]; 15 °C): 900 ± 200 nM
Kd ([3]; 20 °C): 1200 ± 100 nM
Kd ([3]; 25 °C (298.15 K)): 1500 ± 200 nM
Kd ([3]; 30 °C): 2000 ± 100 nM
ΔG [3]: -8.0 kcal/mol and -8.0 ± 3.6 kcal/mol
ΔH [3]: -9.4 kcal/mol and -9.4 ± 06 kcal/mol
ΔS [3]: −4.8 cal.mol^−1.K^−1 and −4.8 ± 2.2 cal.mol^−1.K^−1

CCOC(=O)c1ccc2nc(C)cc(Nc3ccc(N4CCCCC4)cc3)c2c1 [Labio_17]
heart frequency at 5 dpf ([1]; 0.1 μM and 1.0 μM against H2O control): no difference
heart frequency at 5 dpf ([1]; 1.0 μM compared to DMSO control): no difference
cardiotoxicity in the Zebrafish model [1]: signs of cardiotoxicity
survival rate [1]: dose-dependent statistical difference
hatching efficiency ([1]; two highest concentrations, 13.0 μM and 7.5 μM): delayed hatching efficiency
viability at 72 h, 20 µM ([2]; African green monkey): 85 ± 8%
viability at 72 h, 20 µM ([2]; human): 84 ± 14%
Kd ([3]; 25 °C (298.15 K)): 7200 ± 500 nM
ΔG [3]: -7.1 ± 0.8 kcal/mol
ΔH [3]: -23.3 ± 1.9 kcal/mol
ΔS [3]: −54.5 ± 6.5 cal.mol^−1.K^−1
